Data taken from patent US9271978B2 (Zenith Epigenetics Corp., priority 2012, dated 2016).
Where a name gives a salt, the structure may show the parent alone.

Each molecule was assayed against T1, Brd4 bromodomain 1 (BRD4(1)) (Homo sapiens, UniProt O60885) (assay: Inhibition of tetra-acetylated histone H4 binding to Brd4 bromodomain 1 (TR-FRET)). Settings: tetra-acetylated histone H4 peptide, active = IC50 <30 μM.
T1 construct: Illustrative results with the first bromodomain of Brd4; made in house; host or cells: E. coli BL21 (DE3)
Parameters: key: Active: Compounds with an IC50 value less than 30 μM were deemed to be active.; Not Active: Compounds with an IC50 value less than 30 μM were deemed to be active
Description: Proteins were cloned and overexpressed with a N-terminal 6×His tag, then purified by nickel affinity followed by size exclusion chromatography. Briefly, E. coli BL21 (DE3) cells were transformed with a recombinant expression vector encoding N-terminally Nickel affinity tagged bromodomains from Brd2, Brd3, Brd4. Cell cultures were incubated at 37° C. with shaking to the appropriate density and induced overnight with IPTG. The supernatant of lysed cells was loaded onto Ni-IDA column for purification. Eluted protein is pooled, concentrated and further purified by size exclusion chromatography. Fractions representing monomeric protein were pooled, concentrated, aliquoted, and frozen at −80° C. for use in subsequent experiments.
Binding of tetra-acetylated histone H4 and BET bromodomains was confirmed by a Time Resolved Fluorescence Resonance Energy Transfer (TR-FRET) method. N-terminally His-tagged bromodomains (200 nM) and biotinylated tetra-acetylated histone H4 peptide (25-50 nM, Millipore) were incubated in the presence of Europium Cryptate-labeled streptavidin (Cisbio Cat. #610SAKLB) and XL665-labeled monoclonal anti-His antibody (Cisbio Cat. #61HISXLB) in a white 96 well microtiter plate (Greiner). For inhibition assays, serially diluted test compound was added to these reactions in a 0.2% final concentration of DMSO. Final buffer concentrations were 30 mM HEPES pH 7.4, 30 mM NaCl, 0.3 mM CHAPS, 20 mM phosphate pH 7.0, 320 mM KF, 0.08% BSA). After a 2-h incubation at room temperature, the fluorescence by FRET was measured at 665 and 620 nm by a SynergyH4 plate reader (Biotek). Illustrative results with the first bromodomain of Brd4 and the second bromodomain of Brd2 are shown below. The binding inhibitory activity was shown by a decrease in 665 nm fluorescence relative to 620 nm. IC50 values were determined from a dose response curve.

| SMILES | FRET activity (IC50 <30 μM) BRD4(1) |
| --- | --- |
| Cc1noc(C)c1-c1cc(C(=O)O)c(=O)n(Cc2ccccc2)c1 [Example 229, 1-Benzyl-5-(3,5-dimethylisoxazol-4-yl)-2-oxo-1,2-dihydropyridine-3-carboxylic acid] | Active |
| Cc1noc(C)c1-c1cc(Nc2cnccn2)c(=O)n(Cc2ccccc2)c1 [Example 235, 1-benzyl-5-(3,5-dimethylisoxazol-4-yl)-3-(pyrazin-2-ylamino)pyridin-2(1H)-one] | Active |
| Cc1noc(C)c1-c1cc(N)c(=O)n(Cc2ccncc2Cl)c1 [Example 253] | Active |
| CC(c1ccccc1)n1nc(-c2ccc(O)cc2)ccc1=O (stereo not shown) [Example 178, 6-(4-hydroxyphenyl)-2-(1-phenylethyl)pyridazin-3(2H)-one] | Active |
| COC(=O)c1onc(C)c1-c1ccc(=O)n(Cc2ccc(Cl)cc2)c1 [Example 259, methyl 4-(1-(4-chlorobenzyl)-6-oxo-1,6-dihydropyridin-3-yl)-3-methylisoxazole-5-carboxylate] | Not Active |
| Cc1noc(C)c1-c1cc(N)c(=O)n(C)c1 [Example 224, 3-Amino-5-(3,5-dimethylisoxazol-4-yl)-1-methylpyridin-2(1H)-one] | Active |
| Cc1noc(C)c1-c1cc(N2CCN(C)CC2)c(=O)n(Cc2ccccc2)c1 [Example 153, 1-Benzyl-5-(3,5-dimethylisoxazol-4-yl)-3-(4-methylpiperazin-1-yl)pyridin-2(1H)-one Hydrochloride] | Active |
| Cc1noc(C)c1-c1cc(Nc2cccnc2)c(=O)n(Cc2ccccc2)n1 [Example 248, 2-benzyl-6-(3,5-dimethylisoxazol-4-yl)-4-(pyridin-3-ylamino)pyridazin-3(2H)-one] | Active |
| Cc1noc(C(=O)O)c1-c1ccc(=O)n(Cc2ccc(Cl)cc2)c1 [Example 260, 4-(1-(4-chlorobenzyl)-6-oxo-1,6-dihydropyridin-3-yl)-3-methylisoxazole-5-carboxylic acid] | Not Active |
| COc1ccc(Nc2cc(-c3c(C)noc3C)cn(Cc3ccccc3)c2=O)cn1 [Example 234, 1-benzyl-5-(3,5-dimethylisoxazol-4-yl)-3-((6-methoxypyridin-3-yl)amino)pyridin-2(1H)-one] | Active |
| COC(=O)c1noc(C)c1-c1ccc(=O)n(Cc2ccc(Cl)cc2)c1 [Example 199, Methyl 4-(1-(4-chlorobenzyl)-6-oxo-1,6-dihydropyridin-3-yl)-5-methylisoxazole-3-carboxylate] | Not Active |
| COc1cc(=O)n(Cc2ccccc2)cc1-c1c(C)noc1C [Example 154, 1-Benzyl-5-(3,5-dimethylisoxazol-4-yl)-4-methoxypyridin-2(1H)-one] | Active |
| CNC(=O)c1onc(C)c1-c1ccc(=O)n(Cc2ccc(Cl)cc2)c1 [Example 265, 4-(1-(4-chlorobenzyl)-6-oxo-1,6-dihydropyridin-3-yl)-N,3-dimethylisoxazole-5-carboxamide] | Not Active |
| Cc1noc(C)c1-c1cc(Nc2ccc(C#N)nc2)c(=O)n(Cc2ccccc2)c1 [Example 232, 5-((1-benzyl-5-(3,5-dimethylisoxazol-4-yl)-2-oxo-1,2-dihydropyridin-3-yl)amino)picolinonitrile] | Active |
| Cc1noc(C)c1-c1cc(N)c(=O)n(Cc2cccc3c2OCO3)c1 [Example 257, 3-amino-1-(benzo[d][1,3]dioxol-4-ylmethyl)-5-(3,5-dimethylisoxazol-4-yl)pyridin-2(1H)-one] | Active |
| Cc1ccc(Nc2cc(-c3c(C)noc3C)cn(Cc3ccccc3)c2=O)cn1 [Example 245, 1-benzyl-5-(3,5-dimethylisoxazol-4-yl)-3-((6-methylpyridin-3-yl)amino)pyridin-2(1H)-one] | Active |
| Cc1noc(C)c1-c1cc(Nc2cncnc2)c(=O)n(Cc2ccccc2)c1 [Example 236, 1-benzyl-5-(3,5-dimethylisoxazol-4-yl)-3-(pyrimidin-5-ylamino)pyridin-2(1H)-one] | Active |
| CON(C)C(=O)c1noc(C)c1-c1ccc(=O)n(Cc2ccccc2)c1 [Example 249, 4-(1-benzyl-6-oxo-1,6-dihydropyridin-3-yl)-N-methoxy-N,5-dimethylisoxazole-3-carboxamide] | Not Active |
| Cc1onc(C(N)=O)c1-c1ccc(=O)n(Cc2ccc(Cl)cc2)c1 [Example 202, 4-(1-(4-Chlorobenzyl)-6-oxo-1,6-dihydropyridin-3-yl)-5-methylisoxazole-3-carboxamide] | Active |
| Cc1onc(C(=O)O)c1-c1ccc(=O)n(Cc2ccc(Cl)cc2)c1 [Example 225, 4-(1-(4-Chlorobenzyl)-6-oxo-1,6-dihydropyridin-3-yl)-5-methylisoxazole-3-carboxylic acid] | Not Active |
| Cc1noc(C)c1-c1cc(NCC(F)(F)F)c(=O)n(Cc2ccc(Cl)cc2)c1 [Example 243, 1-(4-Chlorobenzyl)-5-(3,5-dimethylisoxazol-4-yl)-3-((2,2,2-trifluoroethyl)amino)pyridin-2(1H)-one] | Active |
| Cc1nnc(C)n1-c1ccc(=O)n(Cc2ccc(Cl)cc2)c1 [Example 197, 1-(4-chlorobenzyl)-5-(3,5-dimethyl-4H-1,2,4-triazol-4-yl)pyridin-2(1H)-one] | Not Active |
| Cc1nsc(C)c1-c1ccc(=O)n(Cc2ccccc2)c1 [Example 196, 1-benzyl-5-(3,5-dimethylisothiazol-4-yl)pyridin-2(1H)-one] | Active |
| O=C1CC(c2ccc(=O)n(Cc3ccccc3)c2)CN1 (stereo not shown) [Example 268, 1-Benzyl-5-(5-oxopyrrolidin-3-yl)pyridin-2(1H)-one] | Not Active |
| Cc1noc(C)c1-c1cc(Nc2ccc(F)cc2)c(=O)n(Cc2ccccc2)c1 [Example 156, 1-Benzyl-5-(3,5-dimethylisoxazol-4-yl)-3-((4-fluorophenyl)amino)pyridin-2(1H)-one] | Active |
| Cc1noc(C)c1-c1cc(-n2ccnc2)c(=O)n(Cc2ccccc2)c1 [Example 204, 1-benzyl-5-(3,5-dimethylisoxazol-4-yl)-3-(1H-imidazol-1-yl)pyridin-2(1H)-one] | Active |
| Cc1noc(C)c1-c1cc(Nc2ccncc2)c(=O)n(Cc2ccccc2)c1 [Example 195, 1-benzyl-5-(3,5-dimethylisoxazol-4-yl)-3-(pyridin-4-ylamino)pyridin-2(1H)-one] | Active |
| Cc1onc(CO)c1-c1ccc(=O)n(Cc2ccc(Cl)cc2)c1 [Example 159, 1-(4-Chlorobenzyl)-5-(3-(hydroxymethyl)-5-methylisoxazol-4-yl)pyridin-2(1H)-one] | Active |
